Laboratory results: the supplement of paper PMC11061612

How the values were obtained:
Experiment in all cases: combination Emax (second highest fraction inhibited in the dose matrix, 72 h); higher = more inhibition; extreme values may be limits of the assay
[1] = test system: HCC1937 (Breast Carcinoma)
In short: (§1)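 Bliss excess equals the observed combination effect minus the expected value EA + EB − EA·EB, where EA and EB are the effects of each agent alone. Combination Emax is the second-highest inhibition within the matrix. Inhibition was scaled from CellTiter-Glo 2.0 luminescence, with 0 set by vehicle wells and 1 by blank wells, after 72 hours of two-drug dosing of cells plated in 1536-well plates.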

COLO-679 (Melanoma) = test system: COLO-679 (Melanoma)
In short: as §1

[2] = test system: G-401 (Other Solid Carcinomas)
In short: as §1

[3] = test system: MOLT-4 (T-Lymphoblastic Leukemia)
In short: as §1

[4] = test system: HCC1500 (Breast Carcinoma)
In short: as §1

[5] = test system: MDA-MB-453 (Breast Carcinoma)
In short: as §1

[6] = test system: EFO-21 (Ovarian Carcinoma)
In short: as §1

[7] = test system: COLO-668 (Small Cell Lung Carcinoma)
In short: as §1

Hey (Ovarian Carcinoma) = test system: Hey (Ovarian Carcinoma)
In short: as §1

[8] = test system: HAL-01 (B-Lymphoblastic Leukemia)
In short: as §1

[9] = test system: MOG-G-UVW (Low Grade Glioma)
In short: as §1

[10] = test system: KGN (Other Solid Carcinomas)
In short: as §1

[11] = test system: SNU-387 (Hepatocellular Carcinoma)
In short: as §1

[12] = test system: NCI-H1838 (Lung Adenocarcinoma)
In short: as §1

[13] = test system: KMRC-1 (Kidney Carcinoma)
In short: as §1

[14] = test system: OE33 (Esophageal Adenocarcinoma)
In short: as §1

[15] = test system: NCI-H1993 (Lung Adenocarcinoma)
In short: as §1

[16] = test system: SKN (Other Solid Carcinomas)
In short: as §1

[17] = test system: NCI-H1355 (Lung Adenocarcinoma)
In short: as §1

SMILES	combination Emax [1]	combination Emax (COLO-679 (Melanoma))	combination Emax [2]	combination Emax [3]	combination Emax [4]	combination Emax [5]	combination Emax [6]	combination Emax [7]	combination Emax (Hey (Ovarian Carcinoma))	combination Emax [8]	combination Emax [9]	combination Emax [10]	combination Emax [11]	combination Emax [12]	combination Emax [13]	combination Emax [14]	combination Emax [15]	combination Emax [16]	combination Emax [17]
COc1cccc2c1C(=O)c1c(O)c3c(c(O)c1C2=O)C[C@@](O)(C(=O)CO)C[C@@H]3O[C@H]1C[C@H](N)[C@H](O)[C@H](C)O1 [Doxorubicin] + Cc1cc2ncnn2cc1Nc1ncc2c(n1)n(C1CCOCC1)c(=O)n2C [AZD7648] (first compound max 1 µM, 7x7, partner max 10 µM)	0.439	0.959	0.938	1	0.887	0.639	0.482	0.93	0.906	0.986	0.867	0.901	0.65	0.559	0.518	0.526	0.968	0.779	0.624
COc1cccc(OCCCN)c1-c1cc(Nc2cnc(C#N)cn2)n[nH]1 [Prexasertib] + C=CCn1c(=O)c2cnc(Nc3ccc(N4CCN(C)CC4)cc3)nc2n1-c1cccc(C(C)(C)O)n1 [AZD1775] (first compound max 1 µM, partner max 1 µM)	0.584	0.827	0.905	1	0.541	0.909	0.742	0.881	0.837	1	0.943	0.862	0.729	0.704	0.627	0.829	0.906	0.488	0.756
COc1cccc(OCCCN)c1-c1cc(Nc2cnc(C#N)cn2)n[nH]1 [Prexasertib] + CCc1c2c(nc3ccc(O)cc13)-c1cc3c(c(=O)n1C2)COC(=O)[C@]3(O)CC [SN-38] (first compound max 1 µM, 7x7, partner max 0.3 µM)	0.92	0.826	0.929	1	0.934	0.929	0.671	0.973	0.843	1	0.987	0.89	0.795	0.946	0.455	0.811	0.938	0.803	0.756
COc1cccc(OCCCN)c1-c1cc(Nc2cnc(C#N)cn2)n[nH]1 [Prexasertib] + CN(C)CCCOc1ccc(-c2ccc3ncc4c(c3c2)n(C2CCOCC2)c(=O)n4C)cn1 [AZD0156] (first compound max 1 µM, 7x7, partner max 1 µM)	0.537	0.871	0.626	1	0.348	0.926	0.731	0.758	0.82	1	0.88	0.753	0.531	0.598	0.558	0.826	0.826	0.421	0.709
COc1cccc(OCCCN)c1-c1cc(Nc2cnc(C#N)cn2)n[nH]1 [Prexasertib] + C[C@@H]1COCCN1C2=NC(=NC(=C2)C3(CC3)[S@](=N)(=O)C)C4=C5C=CNC5=NC=C4 [AZD6738] (first compound max 1 µM, 7x7, partner max 10 µM)	0.537	0.867	0.565	1	0.383	0.888	0.638	0.746	0.877	1	0.917	0.834	0.537	0.689	0.555	0.858	0.721	0.465	0.74
COc1cccc(OCCCN)c1-c1cc(Nc2cnc(C#N)cn2)n[nH]1 [Prexasertib] + Cc1cc2ncnn2cc1Nc1ncc2c(n1)n(C1CCOCC1)c(=O)n2C [AZD7648] (first compound max 1 µM, 7x7, partner max 10 µM)	0.537	0.902	0.588	1	0.334	0.908	0.656	0.786	0.777	1	0.904	0.859	0.552	0.54	0.539	0.823	0.777	0.425	0.714
COc1cccc(OCCCN)c1-c1cc(Nc2cnc(C#N)cn2)n[nH]1 [Prexasertib] + O=C(c1cc(Cc2n[nH]c(=O)c3ccccc23)ccc1F)N1CCN(C(=O)C2CC2)CC1 [Olaparib] (first compound max 1 µM, 7x7, partner max 10 µM)	0.503	0.851	0.533	1	0.286	0.776	0.61	0.736	0.827	1	0.926	0.829	0.542	0.46	0.558	0.691	0.845	0.439	0.746
CCc1c2c(nc3ccc(O)cc13)-c1cc3c(c(=O)n1C2)COC(=O)[C@]3(O)CC [SN-38] + CN(C)CCCOc1ccc(-c2ccc3ncc4c(c3c2)n(C2CCOCC2)c(=O)n4C)cn1 [AZD0156] (first compound max 0.3 µM, 7x7, partner max 1 µM)	0.487	0.659	0.596	1	0.708	0.772	0.529	0.961	0.732	1	0.854	0.937	0.229	0.607	0.419	0.642	0.696	0.412	0.361
CCc1c2c(nc3ccc(O)cc13)-c1cc3c(c(=O)n1C2)COC(=O)[C@]3(O)CC [SN-38] + O=C(c1cc(Cc2n[nH]c(=O)c3ccccc23)ccc1F)N1CCN(C(=O)C2CC2)CC1 [Olaparib] (first compound max 0.3 µM, 7x7, partner max 10 µM)	–	0.743	–	1	0.873	0.746	0.586	1	0.72	1	0.825	0.918	0.146	–	0.318	0.587	0.635	0.596	0.366
CC(=O)Nc1cccc(-n2c(=O)n(C3CC3)c(=O)c3c(Nc4ccc(I)cc4F)n(C)c(=O)c(C)c32)c1 [Trametinib] + Cc1nc(-c2cn3c(n2)-c2ccc(-c4cnn(C(C)(C)C(N)=O)c4)cc2OCC3)n(C(C)C)n1 [Taselisib] (first compound max 1 µM, 7x7, partner max 10 µM)	0.722	0.856	0.958	0.859	0.319	0.798	0.618	0.96	0.893	0.687	0.955	0.807	1	0.476	0.748	0.84	0.898	0.676	0.69
CC1(C)CCC(CN2CCN(c3ccc(C(=O)NS(=O)(=O)c4ccc(NCC5CCOCC5)c([N+](=O)[O-])c4)c(Oc4cnc5[nH]ccc5c4)c3)CC2)=C(c2ccc(Cl)cc2)C1 [Venetoclax] + C1CN(CCC1(C(=O)N[C@@H](CCO)C2=CC=C(C=C2)Cl)N)C3=NC=NC4=C3C=CN4 [Capivasertib] (first compound max 1 µM, 7x7, partner max 3 µM)	0.373	0.146	0.518	0.718	0.704	0.463	0.222	0.469	0.24	0.916	0.455	0.389	0.23	0.283	0.368	0.184	0.5	0.42	0.268
CC1(C)CCC(CN2CCN(c3ccc(C(=O)NS(=O)(=O)c4ccc(NCC5CCOCC5)c([N+](=O)[O-])c4)c(Oc4cnc5[nH]ccc5c4)c3)CC2)=C(c2ccc(Cl)cc2)C1 [Venetoclax] + C=CCn1c(=O)c2cnc(Nc3ccc(N4CCN(C)CC4)cc3)nc2n1-c1cccc(C(C)(C)O)n1 [AZD1775] (first compound max 1 µM, partner max 1 µM)	0.406	0.413	0.83	1	0.781	0.769	0.581	0.943	0.667	1	0.933	0.68	0.702	0.421	0.394	0.623	0.629	0.556	0.607
CC1(C)CCC(CN2CCN(c3ccc(C(=O)NS(=O)(=O)c4ccc(NCC5CCOCC5)c([N+](=O)[O-])c4)c(Oc4cnc5[nH]ccc5c4)c3)CC2)=C(c2ccc(Cl)cc2)C1 [Venetoclax] + CCN(CCO)CCCOc1ccc2c(Nc3cc(CC(=O)Nc4cccc(F)c4)[nH]n3)ncnc2c1 [AZD2811] (first compound max 1 µM, 7x7, partner max 1 µM)	0.264	0.133	0.483	1	0.855	0.211	0.375	0.618	0.266	0.959	0.636	0.509	0.215	0.226	0.158	0.174	0.232	0.242	0.323
